In patent US20240158391A1, “DERIVATIVES OF 4-(IMIDAZO[1,2-A]PYRIDIN-3-YL)-N-(PYRIDIN-3-YL) PYRIMIDIN-2- AMINE FOR TREATING PROLIFERATIVE DISEASES AND CONDITIONS” (AUCENTRA THERAPEUTICS PTY LTD, priority 2019, published 2024):

Assays:
CDK4/CyclinD1 = CDK4/CyclinD1 (Homo sapiens, UniProt P11802); experiment: ADP Glo kinase assay, CDK4/CyclinD1; format: biochemical; conditions: compound at 1 μM, read-out: Residual enzymatic activity (%) at 1 μM, CDK4 D1
How it was run: (§1)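 Test compounds were run as 1:3 serial dilutions over 10 concentrations (10-0.0005 μM) in 0.5% DMSO. Kinase reactions proceeded for an optimised time at room temperature before being stopped with ADP Glo reagent.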

CDK2/CyclinA2 = CDK2/CyclinA2 (Homo sapiens, UniProt P24941); experiment: ADP Glo kinase assay, CDK2/CyclinA2; format: biochemical; conditions: for Ki: Km ATP, read-out: Enzymatic inhibition, Ki, CDK2 A; for remaining activity at 1 µM: compound at 1 μM, read-out: Residual enzymatic activity (%) at 1 μM, CDK2 A
How it was run: as §1

CDK7/CyclinH/Mat1 = CDK7/CyclinH/Mat1 (Homo sapiens, UniProt P50613); experiment: ADP Glo kinase assay, CDK7/CyclinH/Mat1; format: biochemical; conditions: for remaining activity at 1 µM: compound at 1 μM, read-out: Residual enzymatic activity (%) at 1 μM, CDK7 H
How it was run: as §1

CDK6/CyclinD3 = CDK6/CyclinD3 (Homo sapiens, UniProt Q00534); experiment: ADP Glo kinase assay, CDK6/CyclinD3; format: biochemical; conditions: for remaining activity at 1 µM: compound at 1 μM, read-out: Residual enzymatic activity (%) at 1 μM, CDK6 D3; for Ki: Km ATP, read-out: Enzymatic inhibition, Ki, CDK6 D3
How it was run: as §1

CDK9/CyclinT1 = CDK9/CyclinT1 (Homo sapiens, UniProt P50750); experiment: ADP Glo kinase assay, CDK9/CyclinT1; format: biochemical; conditions: CDK9/CyclinT1; Km ATP; read-out: Enzymatic inhibition, Ki, CDK9 T1
How it was run: as §1

MV-4-11 = experiment: Proliferation assay (resazurin, leukemia cell lines), MV-4-11; format: cell-based; conditions: Homo sapiens, MV4-11, read-out: 72 h Growth inhibition GI50, MV-4-11 cells
Text: The following compounds were used as comparators.

FLT3-ITD = molecular target: T1, FLT3-ITD (Homo sapiens, UniProt P36888); experiment: ADP Glo kinase assay, FLT3-ITD; format: biochemical; conditions: Km ATP 100 μM, read-out: Enzymatic inhibition, Ki, FLT3-ITD
T1 sequence (P36888 1-993): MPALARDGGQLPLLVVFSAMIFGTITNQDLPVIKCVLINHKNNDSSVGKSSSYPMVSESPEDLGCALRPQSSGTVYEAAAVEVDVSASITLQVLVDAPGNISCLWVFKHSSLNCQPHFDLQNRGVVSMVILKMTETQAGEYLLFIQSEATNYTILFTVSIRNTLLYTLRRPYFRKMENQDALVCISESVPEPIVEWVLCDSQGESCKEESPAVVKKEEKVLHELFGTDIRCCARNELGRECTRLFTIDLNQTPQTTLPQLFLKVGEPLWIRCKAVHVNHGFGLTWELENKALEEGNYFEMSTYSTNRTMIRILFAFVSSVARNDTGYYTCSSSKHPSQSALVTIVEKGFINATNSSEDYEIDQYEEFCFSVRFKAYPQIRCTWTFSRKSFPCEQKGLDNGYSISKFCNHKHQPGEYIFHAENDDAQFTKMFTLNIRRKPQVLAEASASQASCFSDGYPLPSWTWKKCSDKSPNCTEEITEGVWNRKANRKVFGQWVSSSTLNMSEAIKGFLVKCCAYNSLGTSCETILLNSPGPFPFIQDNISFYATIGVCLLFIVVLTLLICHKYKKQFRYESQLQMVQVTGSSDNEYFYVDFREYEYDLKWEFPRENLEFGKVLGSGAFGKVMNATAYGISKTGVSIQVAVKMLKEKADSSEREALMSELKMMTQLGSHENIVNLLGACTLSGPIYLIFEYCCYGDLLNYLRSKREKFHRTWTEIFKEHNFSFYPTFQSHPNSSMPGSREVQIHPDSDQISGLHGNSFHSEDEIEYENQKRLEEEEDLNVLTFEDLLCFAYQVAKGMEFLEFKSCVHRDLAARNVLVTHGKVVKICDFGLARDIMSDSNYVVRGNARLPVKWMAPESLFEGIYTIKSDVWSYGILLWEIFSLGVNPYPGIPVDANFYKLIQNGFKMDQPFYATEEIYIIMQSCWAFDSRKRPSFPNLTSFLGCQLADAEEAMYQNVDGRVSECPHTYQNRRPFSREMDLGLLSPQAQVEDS
How it was run: as §1

CDK1/CyclinB = CDK1/CyclinB (Homo sapiens, UniProt P06493); experiment: ADP Glo kinase assay, CDK1/CyclinB; format: biochemical; conditions: for remaining activity at 1 µM: compound at 1 μM, read-out: Residual enzymatic activity (%) at 1 μM, CDK1 B; for Ki: Km ATP, read-out: Enzymatic inhibition, Ki, CDK1 B
How it was run: as §1

CDK6/CyclinD3, sequence (Q00534 whole entry, species assumed): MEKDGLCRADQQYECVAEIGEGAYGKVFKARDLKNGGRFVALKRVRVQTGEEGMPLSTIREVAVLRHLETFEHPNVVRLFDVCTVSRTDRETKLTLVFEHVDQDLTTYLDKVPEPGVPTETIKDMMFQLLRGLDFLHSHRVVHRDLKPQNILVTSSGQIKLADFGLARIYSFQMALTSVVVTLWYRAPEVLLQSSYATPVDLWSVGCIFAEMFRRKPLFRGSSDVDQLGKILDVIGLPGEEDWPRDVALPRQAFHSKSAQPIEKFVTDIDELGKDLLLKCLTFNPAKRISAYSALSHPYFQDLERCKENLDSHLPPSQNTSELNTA
CDK6/CyclinD3, sequence (P30281 whole entry partner, species assumed): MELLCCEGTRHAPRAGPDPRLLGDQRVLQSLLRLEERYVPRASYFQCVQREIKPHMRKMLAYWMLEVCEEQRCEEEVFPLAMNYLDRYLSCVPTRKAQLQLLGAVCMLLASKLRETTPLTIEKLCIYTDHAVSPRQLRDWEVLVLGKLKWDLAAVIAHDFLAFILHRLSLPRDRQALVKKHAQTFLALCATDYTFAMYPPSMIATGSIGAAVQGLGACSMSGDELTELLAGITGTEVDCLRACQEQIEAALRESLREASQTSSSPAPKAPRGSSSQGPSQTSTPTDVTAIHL
CDK4/CyclinD1, sequence (P11802 whole entry, species assumed): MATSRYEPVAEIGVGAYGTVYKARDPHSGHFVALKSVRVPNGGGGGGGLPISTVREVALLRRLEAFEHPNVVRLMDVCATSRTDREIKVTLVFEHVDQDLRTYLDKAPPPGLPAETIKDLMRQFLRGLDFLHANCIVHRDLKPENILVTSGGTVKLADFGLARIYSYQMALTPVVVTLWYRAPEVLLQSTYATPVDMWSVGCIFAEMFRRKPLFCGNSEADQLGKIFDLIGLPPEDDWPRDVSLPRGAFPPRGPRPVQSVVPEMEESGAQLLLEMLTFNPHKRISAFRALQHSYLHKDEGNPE
CDK4/CyclinD1, sequence (P24385 whole entry partner, species assumed): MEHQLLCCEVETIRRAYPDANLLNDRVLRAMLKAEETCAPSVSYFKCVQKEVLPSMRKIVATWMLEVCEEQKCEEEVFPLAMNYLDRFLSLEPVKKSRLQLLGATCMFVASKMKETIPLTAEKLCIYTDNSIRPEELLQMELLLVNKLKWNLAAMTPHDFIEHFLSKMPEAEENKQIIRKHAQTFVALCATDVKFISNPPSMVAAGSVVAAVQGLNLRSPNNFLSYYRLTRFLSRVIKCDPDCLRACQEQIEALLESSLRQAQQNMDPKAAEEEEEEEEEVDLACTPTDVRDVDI
CDK9/CyclinT1, sequence (P50750 whole entry, species assumed): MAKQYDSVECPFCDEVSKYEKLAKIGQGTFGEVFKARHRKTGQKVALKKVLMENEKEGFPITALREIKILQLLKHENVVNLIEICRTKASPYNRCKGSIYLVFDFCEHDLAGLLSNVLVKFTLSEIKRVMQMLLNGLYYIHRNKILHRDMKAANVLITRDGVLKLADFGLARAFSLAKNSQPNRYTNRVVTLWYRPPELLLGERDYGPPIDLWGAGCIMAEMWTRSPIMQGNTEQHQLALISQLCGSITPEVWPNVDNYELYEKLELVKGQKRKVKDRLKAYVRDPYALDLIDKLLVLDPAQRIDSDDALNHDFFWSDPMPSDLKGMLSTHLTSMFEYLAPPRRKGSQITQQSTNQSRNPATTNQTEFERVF
CDK9/CyclinT1, sequence (O60563 whole entry partner, species assumed): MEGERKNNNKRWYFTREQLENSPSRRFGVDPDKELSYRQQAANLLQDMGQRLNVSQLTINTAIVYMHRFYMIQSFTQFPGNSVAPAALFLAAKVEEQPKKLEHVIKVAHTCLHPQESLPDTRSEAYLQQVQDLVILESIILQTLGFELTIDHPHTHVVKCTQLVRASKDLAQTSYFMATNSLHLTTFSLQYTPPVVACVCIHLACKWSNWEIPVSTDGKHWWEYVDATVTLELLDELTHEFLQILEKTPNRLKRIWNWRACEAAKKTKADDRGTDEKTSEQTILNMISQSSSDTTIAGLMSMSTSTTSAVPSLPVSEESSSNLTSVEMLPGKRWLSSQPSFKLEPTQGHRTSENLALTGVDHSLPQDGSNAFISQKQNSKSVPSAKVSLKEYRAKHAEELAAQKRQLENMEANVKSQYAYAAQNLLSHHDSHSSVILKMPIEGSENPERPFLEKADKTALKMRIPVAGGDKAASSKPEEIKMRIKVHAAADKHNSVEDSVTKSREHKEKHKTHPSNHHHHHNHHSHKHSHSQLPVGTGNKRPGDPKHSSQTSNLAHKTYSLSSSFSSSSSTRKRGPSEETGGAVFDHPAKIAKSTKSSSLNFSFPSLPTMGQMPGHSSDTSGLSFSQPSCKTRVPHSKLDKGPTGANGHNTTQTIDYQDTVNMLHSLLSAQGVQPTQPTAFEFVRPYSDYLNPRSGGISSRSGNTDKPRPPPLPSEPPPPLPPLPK
CDK7/CyclinH/Mat1, sequence (P50613 whole entry, species assumed): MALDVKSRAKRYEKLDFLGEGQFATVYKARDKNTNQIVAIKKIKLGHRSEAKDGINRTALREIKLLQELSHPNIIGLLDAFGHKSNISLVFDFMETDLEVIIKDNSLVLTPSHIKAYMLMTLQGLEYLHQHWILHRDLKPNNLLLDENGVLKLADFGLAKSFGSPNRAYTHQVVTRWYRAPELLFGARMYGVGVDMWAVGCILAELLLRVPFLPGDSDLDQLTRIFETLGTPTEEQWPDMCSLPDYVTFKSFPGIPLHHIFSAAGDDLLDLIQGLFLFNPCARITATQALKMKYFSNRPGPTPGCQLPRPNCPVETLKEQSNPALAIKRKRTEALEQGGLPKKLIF
CDK7/CyclinH/Mat1, sequence (P51946 whole entry partner, species assumed): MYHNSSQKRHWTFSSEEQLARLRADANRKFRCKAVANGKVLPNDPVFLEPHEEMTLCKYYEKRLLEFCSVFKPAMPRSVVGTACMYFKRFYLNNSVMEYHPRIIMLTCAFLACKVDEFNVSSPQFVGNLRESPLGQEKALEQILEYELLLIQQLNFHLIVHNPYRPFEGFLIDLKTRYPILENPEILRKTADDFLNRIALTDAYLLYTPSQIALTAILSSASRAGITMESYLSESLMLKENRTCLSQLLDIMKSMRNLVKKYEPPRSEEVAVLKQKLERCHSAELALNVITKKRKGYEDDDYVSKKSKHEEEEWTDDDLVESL
CDK7/CyclinH/Mat1, sequence (P51948 whole entry partner, species assumed): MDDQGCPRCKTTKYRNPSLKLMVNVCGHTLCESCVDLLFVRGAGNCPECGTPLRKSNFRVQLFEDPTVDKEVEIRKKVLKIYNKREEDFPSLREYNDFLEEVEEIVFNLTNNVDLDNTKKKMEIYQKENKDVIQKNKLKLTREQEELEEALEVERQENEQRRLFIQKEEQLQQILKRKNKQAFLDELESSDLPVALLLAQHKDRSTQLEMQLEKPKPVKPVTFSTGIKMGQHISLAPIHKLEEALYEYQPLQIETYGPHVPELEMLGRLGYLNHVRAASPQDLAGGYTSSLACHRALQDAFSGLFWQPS
CDK1/CyclinB, sequence (P06493 whole entry, species assumed): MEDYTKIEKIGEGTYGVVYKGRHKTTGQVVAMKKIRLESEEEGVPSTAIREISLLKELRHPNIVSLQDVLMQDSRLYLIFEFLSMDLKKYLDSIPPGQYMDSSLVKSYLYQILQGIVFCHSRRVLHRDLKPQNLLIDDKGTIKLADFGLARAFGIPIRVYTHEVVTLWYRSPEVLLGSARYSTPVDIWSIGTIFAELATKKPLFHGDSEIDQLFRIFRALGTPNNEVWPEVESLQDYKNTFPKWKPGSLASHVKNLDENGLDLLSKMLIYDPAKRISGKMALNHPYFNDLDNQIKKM
CDK1/CyclinB, sequence (P14635 whole entry partner, species assumed): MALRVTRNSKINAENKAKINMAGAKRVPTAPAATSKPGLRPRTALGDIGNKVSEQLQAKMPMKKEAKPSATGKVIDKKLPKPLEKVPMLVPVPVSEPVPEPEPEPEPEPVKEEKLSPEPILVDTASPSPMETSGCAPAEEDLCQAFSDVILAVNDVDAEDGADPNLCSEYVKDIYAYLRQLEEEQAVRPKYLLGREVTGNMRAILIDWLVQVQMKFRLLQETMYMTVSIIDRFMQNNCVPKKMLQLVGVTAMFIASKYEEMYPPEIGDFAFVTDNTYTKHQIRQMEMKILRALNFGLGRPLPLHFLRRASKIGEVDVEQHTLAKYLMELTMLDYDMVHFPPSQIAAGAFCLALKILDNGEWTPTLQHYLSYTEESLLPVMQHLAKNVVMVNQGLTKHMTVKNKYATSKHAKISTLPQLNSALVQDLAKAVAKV

Row | Structure (SMILES) | remaining activity at 1 µM (CDK4/CyclinD1) | Ki (CDK2/CyclinA2) | remaining activity at 1 µM (CDK7/CyclinH/Mat1) | remaining activity at 1 µM (CDK6/CyclinD3) | Ki (CDK9/CyclinT1) | GI50 (MV-4-11) | Ki (FLT3-ITD) | remaining activity at 1 µM (CDK1/CyclinB) | remaining activity at 1 µM (CDK2/CyclinA2) | Ki (CDK6/CyclinD3) | Ki (CDK1/CyclinB) | Ki (CDK7/CyclinH/Mat1; Km ATP, read-out: Enzymatic inhibition, Ki, CDK7 H)
1 | CC(C)N1CCN(c2ccc(Nc3nccc(-c4cnc5ccc(-c6ccncc6)cn45)n3)cn2)CC1 [Compound 40, N-(6-(4-Isopropylpiperazin-1-yl)pyridin-3-yl)-4-(6-(pyridin-4-yl)imidazo[1,2-a]pyridin-3-yl)pyrimidin-2-amine] | 57% | 0.344 µM | 32% | 52% | 0.012 µM | 0.047 µM | 0.011 µM | 41% | – | – | – | –
2 | CC(=O)N1CCN(c2ccc(Nc3nccc(-c4cnc5ccccn45)n3)cn2)CC1 [Compound 41, 1-(4-(5-((4-(Imidazo[1,2-a]pyridin-3-yl)pyrimidin-2-yl)amino)pyridin-2-yl)piperazin-1-yl)ethan-1-one] | 53% | – | 77% | 70% | 0.091 µM | 0.027 µM | 0.032 µM | 31% | 22% | – | – | –
3 | Brc1ccc2ncc(-c3ccnc(Nc4ccc(N5CCNCC5)nc4)n3)n2c1 [Compound 42, 4-(6-Bromoimidazo[1,2-a]pyridin-3-yl)-N-(6-(piperazin-1-yl)pyridin-3-yl)pyrimidin-2-amine] | 24% | 0.031 µM | 27% | – | 0.029 µM | 0.022 µM | 0.009 µM | – | – | > 0.5 µM | 0.078 µM | –
4 | COc1ccc(-c2ccc3ncc(-c4ccnc(Nc5ccc(N6CCN(C)CC6)nc5)n4)n3c2)cn1 [Compound 43, 4-(6-(6-Methoxypyridin-3-yl)imidazo[1,2-a]pyridin-3-yl)-N-(6-(4-methylpiperazin-1-yl)pyridin-3-yl)pyrimidin-2-amine] | 68% | – | 41% | 46% | 0.066 µM | 0.04 µM | 0.024 µM | 67% | 46% | – | – | –
5 | CC(=O)N1CCN(c2ccc(Nc3nccc(-c4cnc5ccc(Br)cn45)n3)cn2)CC1 [Compound 44, 1-(4-(5-((4-(6-Bromoimidazo[1,2-a]pyridin-3-yl)pyrimidin-2-yl)amino)pyridin-2-yl)piperazin-1-yl)ethan-1-one] | 84% | – | 77% | 55% | 0.719 µM | 0.021 µM | 0.137 µM | 56% | 28% | – | – | –
6 | CC(=O)N1CCN(c2ccc(Nc3nccc(-c4cnc5ccc(-c6ccccc6)cn45)n3)cn2)CC1 [Compound 45, 1-(4-(5-((4-(6-Phenylimidazo[1,2-a]pyridin-3-yl)pyrimidin-2-yl)amino)pyridin-2-yl)piperazin-1-yl)ethan-1-one] | 91% | – | 79% | 60% | 0.054 µM | 0.012 µM | 0.444 µM | 60% | 63% | – | – | –
7 | CC(=O)N1CCN(c2ccc(Nc3nccc(-c4cnc5ccc(-c6ccncc6)cn45)n3)cn2)CC1 [Compound 46, 1-(4-(5-((4-(6-(Pyridin-4-yl)imidazo[1,2-a]pyridin-3-yl)pyrimidin-2-yl)amino)pyridin-2-yl)piperazin-1-yl)ethan-1-one] | 92% | – | 71% | 31% | 0.31 µM | 0.025 µM | 0.08 µM | 21% | 62% | – | – | –
8 | CC(=O)N1CCN(c2ccc(Nc3nccc(-c4cnc5ccc(-c6cn[nH]c6)cn45)n3)cn2)CC1 [Compound 47, 1-(4-(5-((4-(6-(1H-Pyrazol-4-yl)imidazo[1,2-a]pyridin-3-yl)pyrimidin-2-yl)amino)pyridin-2-yl)piperazin-1-yl)ethan-1-one] | 51% | 0.039 µM | – | – | 0.045 µM | 0.029 µM | 0.025 µM | – | – | 0.444 µM | 0.116 µM | 0.262 µM
9 | COc1ccc(-c2ccc3ncc(-c4ccnc(Nc5ccc(N6CCN(C(C)=O)CC6)nc5)n4)n3c2)cn1 [Compound 48, 1-(4-(5-((4-(6-(6-Methoxypyridin-3-yl)imidazo[1,2-a]pyridin-3-yl)pyrimidin-2-yl)amino)pyridin-2-yl)piperazin-1-yl)ethan-1-one] | 86% | – | 75% | 30% | 0.274 µM | 0.018 µM | 0.086 µM | 58% | 34% | – | – | –
10 | CC(=O)N1CCN(c2ccc(Nc3nccc(-c4cnc5ccc(-c6cccc7[nH]ccc67)cn45)n3)cn2)CC1 [Compound 49, 1-(4-(5-((4-(6-(1H-Indol-4-yl)imidazo[1,2-a]pyridin-3-yl)pyrimidin-2-yl)amino)pyridin-2-yl)piperazin-1-yl)ethan-1-one] | 92% | – | 81% | 38% | 0.171 µM | 0.017 µM | > 0.5 µM | 94% | 51% | – | – | –
11 | Cc1cnc(Nc2ccc(N3CCN(C)CC3)nc2)nc1-c1cnc2ccc(-c3ccccc3)cn12 [Compound 50, 5-Methyl-N-(6-(4-methylpiperazin-1-yl)pyridin-3-yl)-4-(6-phenylimidazo[1,2-a]pyridin-3-yl)pyrimidin-2-amine] | 94% | – | 51% | 79% | 0.41 µM | 0.813 µM | 0.21 µM | 91% | 90% | – | – | –
12 | CS(=O)(=O)N1CCN(c2ccc(Nc3nccc(-c4cnc5ccc(-c6ccco6)cn45)n3)cn2)CC1 [Compound 51, 4-(6-(Furan-2-yl)imidazo[1,2-a]pyridin-3-yl)-N-(6-(4-(methylsulfonyl)piperazin-1-yl)pyridin-3-yl)pyrimidin-2-amine] | 96% | – | 80% | 43% | 0.286 µM | 0.017 µM | > 0.5 µM | 77% | 85% | – | – | –
13 | CC(C)N1CCN(c2ccc(Nc3nccc(-c4cnc5ccc(-c6ccsc6)cn45)n3)cn2)CC1 [Compound 54, N-(6-(4-Isopropylpiperazin-1-yl)pyridin-3-yl)-4-(6-(thiophen-3-yl)imidazo[1,2-a]pyridin-3-yl)pyrimidin-2-amine] | 48% | 0.376 µM | 29% | 24% | 0.014 µM | 0.05 µM | 0.011 µM | 32% | – | – | – | –
14 | c1ccc(-c2ccc3ncc(-c4ccnc(Nc5ccc(NC6CCOCC6)nc5)n4)n3c2)cc1 [Compound 58, N^5-(4-(6-Phenylimidazo[1,2-a]pyridin-3-yl)pyrimidin-2-yl)-N^2-(tetrahydro-2H-pyran-4-yl)pyridine-2,5-diamine] | 33% | – | 73% | 45% | 0.401 µM | 0.028 µM | 0.14 µM | 77% | 73% | – | – | –
